Results taken from patent publication US20220000880A1, “METHOD AND COMPOSITION EMBODIMENTS FOR TREATING ACUTE MYELOID LEUKEMIA” (Rigel Pharmaceuticals, Inc., priority 2018, published 2022).

Columns and labels:
AML cell lines = assay: cytotoxicity by Annexin V/PI staining against a panel of AML cell lines; assay type: cell-based; parameters: cytotoxic activity, agent alone: dose or concentration left out as unconfirmed
Method: In this example, the ability of 6-((5-fluoro-2-((3,4,5-trimethoxyphenyl)amino)pyrimidin-4-yl)amino)-2,2-dimethyl-2H-pyrido[3,2-b][1,4]oxazin-3(4H)-one (or a prodrug thereof) to synergistically enhance cytotoxic activity of venetoclax in AML cell lines is evaluated. Cytotoxic effects of venetoclax can be determined using Annexin V/PI staining against a panel of different AML cell lines.

HOXA9/MEIS1 cells = assay: time-lapse microscopy and single-cell tracking of cell fate; assay type: cell-based
Excerpt: The effect of Syk inhibition in HOXA9 and HOXA9/MEIS1 cells by monitoring the fate of individual cells and their progeny by time-lapse microscopy and single-cell tracking also can be carried out.

AML cell line xenograft = assay: mouse model xenografted with an AML cell line, tumor growth; assay type: in vivo; settings: intraperitoneal injections; subcutaneous tumors ≥250 mm^3
Excerpt: The activity of 6-((5-fluoro-2-((3,4,5-trimethoxyphenyl)amino)pyrimidin-4-yl)amino)-2,2-dimethyl-2H-pyrido[3,2-b][1,4]oxazin-3(4H)-one (or a prodrug thereof), alone, also can be evaluated. To do so, activity of 6-((5-fluoro-2-((3,4,5-trimethoxyphenyl)amino)pyrimidin-4-yl)amino)-2,2-dimethyl-2H-pyrido[3,2-b][1,4]oxazin-3(4H)-one can be tested in the appropriate mouse model xenografted with an AML cell line. Tumors can be injected subcutaneously (e.g., in the right flank) and allowed to grow until they reached an appropriate size (e.g., ≥250 mm^3). Intraperitoneal injections can be used to introduce the treatment. […] In some examples, significant differences in tumor volume between mice receiving 6-((5-fluoro-2-((3,4,5-trimethoxyphenyl)amino)pyrimidin-4-yl)amino)-2,2-dimethyl-2H-pyrido[3,2-b][1,4]oxazin-3(4H)-one alone and mice receiving 6-((5-fluoro-2-((3,4,5-trimethoxyphenyl)amino)pyrimidin-4-yl)amino)-2,2-dimethyl-2H-pyrido[3,2-b][1,4]oxazin-3(4H)-one in combination with venetoclax can be observed.

[1] = system: AML samples expressing high levels of HOXA9 and MEIS1; assay: apoptosis measurement (Annexin V) in AML samples; assay type: cell-based, human; settings: 1 μM, 5 μM and 10 μM for 24 hours; alone or in combination
Method: Isolation of bone marrow mononuclear cells from human bone marrow aspirates can be achieved by Ficoll density centrifugation (400×g, RT, 45 min). CD34+ bone marrow mononuclear cells can be isolated using the human CD34 MultiSort Kit (Miltenyi Biotec). […] The cells can be passed through a mesh to remove cell clumps and can then be incubated in MACS buffer, which can be supplemented with FcR Blocking Reagent, and CD34 MultiSort MicroBeads for a particular time and at a particular temperature (e.g., 30 minutes at 4° C.). Excess beads are removed by washing and then magnetic separation using LS columns is carried out. After elution, cells are washed once in MACS buffer and can be resuspended in SFEM supplemented with diverse cytokines. Flow cytometry can be used to assess the purity of the isolated cells. […] The Annexin V Apoptosis Detection Kit I (BD Bioscience) can be used to detect apoptotic cell death. Cells are harvested and washed once with PBS, and can be resuspended in Annexin V binding buffer (200 μl 1×) containing 5 μl Annexin-PE or Annexin-APC and incubated at room temperature in the dark. After washing (e.g., once with 1× Annexin binding buffer), cells are resuspended in 1× Annexin V binding buffer containing 7-AAD (5 μl) and incubated at room temperature in the dark. 1× Annexin V binding buffer (200 μl) is added and cells are analysed using a BD LSRFortessa flow cytometer.

[2] = system: mice transplanted with HOXA9/MEIS1 cells; assay: mice transplanted with HOXA9/MEIS1 cells treated with fostamatinib-impregnated feed; assay type: in vivo, mouse; settings: feed at 3 g/kg, 5 g/kg or 8 g/kg
Method: In this example, mice transplanted with HOXA9 MEIS1 or HOXA9 cells are treated with fostamatinib using feed impregnated with fostamatinib at 3 g/kg, 5 g/kg or 8 g/kg (AIN-76A rodent diet).

COc1cc(Nc2ncc(F)c(Nc3ccc4c(n3)NC(=O)C(C)(C)O4)n2)cc(OC)c1OC [6-((5-fluoro-2-((3,4,5-trimethoxyphenyl)amino)pyrimidin-4-yl)amino)-2,2-dimethyl-2H-pyrido[3,2-b][1,4]oxazin-3(4H)-one]
effect on cytotoxic activity of venetoclax (AML cell lines; cells treated at different concentrations for e.g. 2 hours): markedly increase the cytotoxic activity of venetoclax
cytotoxic effects on its own (AML cell lines; compound (or prodrug) alone): absence of any substantial cytotoxic effects
cell death compared with cells treated with DMSO (HOXA9/MEIS1 cells): significant increase
tumor growth, compound alone (AML cell line xenograft): partially inhibit tumor growth
sensitivity of AML samples with high HOXA9 and MEIS1 compared with samples with weak MEIS1 expression [1]: more sensitive

COc1cc(Nc2ncc(F)c(Nc3ccc4c(n3)N(COP(=O)(O)O)C(=O)C(C)(C)O4)n2)cc(OC)c1OC [fostamatinib, 6-((5-fluoro-2-((3,4,5-trimethoxyphenyl)amino)pyrimidin-4-yl)amino)-2,2-dimethyl-3-oxo-2,3-dihydro-4H-pyrido[3,2-b][1,4]oxazin-4-yl)methyl dihydrogen phosphate]
survival of mice ([2]; longer treatment (e.g., 20 days)): significantly prolong the survival
percentage of leukemic cells ([2]; one week of treatment): reduce the percentage of leukemic cells

CC1(C)CCC(CN2CCN(c3ccc(C(=O)NS(=O)(=O)c4ccc(NCC5CCOCC5)c([N+](=O)[O-])c4)c(Oc4cnc5[nH]ccc5c4)c3)CC2)=C(c2ccc(Cl)cc2)C1 [venetoclax, reference compound]
cytotoxic activity, agent alone (AML cell lines; venetoclax alone, concentrations ranging): only modest activity
